# Source: US9546164B2 (GENENTECH, INC., priority 2013, dated 2017)
# Where a name gives a salt, the structure may show the parent alone.
# Molecular target: hNav1.7 (Homo sapiens (Human), UniProt Q15858)
# Experiment: Tritiated sulfonamide competitive binding to membranes from cells expressing hNav1.7 and the β1 subunit;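 also: Filter-bound radioactivity counted by liquid scintillation, nonspecific binding defined with excess unlabelled ligand, IC50 fitted to percent inhibition of specific binding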
# Conditions: not given
# Chain of hNav1.7 (Q15858 other isoform, or with tags, fused parts or gaps): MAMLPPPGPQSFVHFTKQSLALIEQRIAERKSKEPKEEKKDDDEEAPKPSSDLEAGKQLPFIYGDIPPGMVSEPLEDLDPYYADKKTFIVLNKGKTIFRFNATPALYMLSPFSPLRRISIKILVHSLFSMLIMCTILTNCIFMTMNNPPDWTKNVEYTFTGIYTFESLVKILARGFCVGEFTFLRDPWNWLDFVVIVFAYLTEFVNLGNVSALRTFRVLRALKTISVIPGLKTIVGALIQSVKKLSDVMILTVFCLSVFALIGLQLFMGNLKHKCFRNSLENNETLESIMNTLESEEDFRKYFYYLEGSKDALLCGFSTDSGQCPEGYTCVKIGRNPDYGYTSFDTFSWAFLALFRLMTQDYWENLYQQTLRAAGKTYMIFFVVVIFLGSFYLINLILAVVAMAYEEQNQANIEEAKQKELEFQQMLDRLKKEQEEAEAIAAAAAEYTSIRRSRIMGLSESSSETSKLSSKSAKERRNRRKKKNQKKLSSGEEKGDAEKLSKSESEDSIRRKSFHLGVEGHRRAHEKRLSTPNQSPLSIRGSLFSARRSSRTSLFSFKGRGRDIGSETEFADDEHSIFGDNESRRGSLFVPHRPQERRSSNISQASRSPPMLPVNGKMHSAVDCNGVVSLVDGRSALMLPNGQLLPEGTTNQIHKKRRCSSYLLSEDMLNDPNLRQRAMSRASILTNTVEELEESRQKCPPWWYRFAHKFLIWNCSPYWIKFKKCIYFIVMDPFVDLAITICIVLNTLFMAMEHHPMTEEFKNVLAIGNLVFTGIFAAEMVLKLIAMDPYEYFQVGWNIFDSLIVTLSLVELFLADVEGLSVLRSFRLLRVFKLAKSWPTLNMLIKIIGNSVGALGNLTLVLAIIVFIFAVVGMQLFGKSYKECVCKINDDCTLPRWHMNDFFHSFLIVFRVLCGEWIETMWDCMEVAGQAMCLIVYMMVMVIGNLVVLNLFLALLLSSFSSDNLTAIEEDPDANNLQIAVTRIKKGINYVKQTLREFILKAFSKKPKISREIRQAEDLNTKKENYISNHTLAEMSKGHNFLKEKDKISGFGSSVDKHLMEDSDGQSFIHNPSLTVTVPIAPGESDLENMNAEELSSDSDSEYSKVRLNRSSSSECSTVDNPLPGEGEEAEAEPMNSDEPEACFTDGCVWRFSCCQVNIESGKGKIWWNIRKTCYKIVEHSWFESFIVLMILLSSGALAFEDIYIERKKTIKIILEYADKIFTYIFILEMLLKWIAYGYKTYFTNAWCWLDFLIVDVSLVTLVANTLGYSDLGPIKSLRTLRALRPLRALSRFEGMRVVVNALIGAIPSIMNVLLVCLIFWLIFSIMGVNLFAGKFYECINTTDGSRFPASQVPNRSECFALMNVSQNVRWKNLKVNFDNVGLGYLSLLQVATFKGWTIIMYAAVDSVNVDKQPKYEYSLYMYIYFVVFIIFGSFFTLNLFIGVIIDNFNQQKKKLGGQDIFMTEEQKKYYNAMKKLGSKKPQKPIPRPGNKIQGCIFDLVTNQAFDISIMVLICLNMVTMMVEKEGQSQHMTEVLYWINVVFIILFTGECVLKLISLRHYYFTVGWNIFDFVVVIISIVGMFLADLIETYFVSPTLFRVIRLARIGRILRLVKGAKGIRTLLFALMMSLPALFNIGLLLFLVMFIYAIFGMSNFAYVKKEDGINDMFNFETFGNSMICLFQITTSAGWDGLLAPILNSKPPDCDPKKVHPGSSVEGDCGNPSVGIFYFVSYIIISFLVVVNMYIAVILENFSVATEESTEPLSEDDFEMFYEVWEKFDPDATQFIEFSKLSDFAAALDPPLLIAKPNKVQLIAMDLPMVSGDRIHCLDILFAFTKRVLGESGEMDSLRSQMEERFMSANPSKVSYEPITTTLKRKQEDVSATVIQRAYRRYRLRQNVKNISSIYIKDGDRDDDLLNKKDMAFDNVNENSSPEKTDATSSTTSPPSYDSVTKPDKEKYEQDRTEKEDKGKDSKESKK
# Chain of hNav1.7 (Q07699 19-218 partner): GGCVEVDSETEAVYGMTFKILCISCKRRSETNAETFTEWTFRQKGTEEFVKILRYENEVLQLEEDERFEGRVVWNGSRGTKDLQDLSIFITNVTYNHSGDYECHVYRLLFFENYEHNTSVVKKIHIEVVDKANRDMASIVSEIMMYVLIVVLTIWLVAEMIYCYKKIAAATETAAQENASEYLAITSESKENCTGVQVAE
row,Structure (SMILES),IC50 [nM]
1,"C[C@H](c1cc(Cl)cc(Cl)c1)N1C[C@@H]2C[C@H]1CN2Cc1cc(F)c(C(=O)NS(=O)(=O)C2CC2)cc1C1CC1 (single isomer, unassigned) [Example 563, trifluoroacetic acid salt]",4.2
2,"O=C(NS(=O)(=O)C1CC1)c1cc(C2CC2)c(CN2CCC(OCc3cc(Cl)cc(Cl)c3)CC2)cc1F [Example 512, 5-cyclopropyl-N-(cyclopropylsulfonyl)-4-((4-((3,5-dichlorobenzyl)oxy)piperidin-1-yl)methyl)-2-fluorobenzamide, trifluoroacetic acid salt]",16.7
3,"O=C(NS(=O)(=O)C1CC1)c1cc(C2CC2)c(CN2CCC(S(=O)(=O)c3cc(Cl)cc(Cl)c3)CC2)cc1F [Example 533, 5-cyclopropyl-N-(cyclopropylsulfonyl)-4-((4-((3,5-dichlorophenyl)sulfonyl)piperidin-1-yl)methyl)-2-fluorobenzamide, trifluoroacetic acid salt]",127
4,"CS(=O)(=O)NC(=O)c1cc(C2CC2)c(CN2CCC(Oc3ccc(C(F)(F)F)cc3)CC2)cc1F [Example 499, 5-cyclopropyl-2-fluoro-N-(methylsulfonyl)-4-((4-(4-(trifluoromethyl)phenoxy)piperidin-1-yl)methyl)benzamide]",13.6
5,"CS(=O)(=O)NC(=O)c1cc(C2CC2)c(CN2CCC(CF)(c3ccc(F)cc3)CC2)cc1F [Example 513, 5-cyclopropyl-2-fluoro-4-((4-(fluoromethyl)-4-(4-fluorophenyl)piperidin-1-yl)methyl)-N-(methylsulfonyl)benzamide, trifluoroacetic acid salt]",69.8
6,"CC(C)(c1cccc(Cl)c1)N1CCC[C@@H](Oc2cc(F)c(C(=O)NS(=O)(=O)C3CC3)cc2C2CC2)C1 [Example 530, (R)-4-((1-(2-(3-chlorophenyl)propan-2-yl)piperidin-3-yl)oxy)-5-cyclopropyl-N-(cyclopropylsulfonyl)-2-fluorobenzamide, trifluoroacetic acid salt]",2.3

# Same assay, conditions: read-out: Ligand Binding Assay; 100 pM [3H]compound, membranes with hNav1.7 and β1 subunit, 18 h, room temperature
row,Structure (SMILES),IC50 [nM]
1,"C[C@@H](c1ccccc1)N1CC(COc2cc(F)c(C(=O)NS(C)(=O)=O)cc2C2CC2)C1 [Example 84, (S)-5-Cyclopropyl-2-fluoro-N-(methylsulfonyl)-4-((1-(1-phenylethyl)azetidin-3-yl)methoxy)benzamide]",1240
2,"CCS(=O)(=O)NC(=O)c1cc(C2CC2)c(OCC2CCN(C3(c4cc(Cl)cc(Cl)c4)COC3)CC2)cc1F [Example 177, 5-Cyclopropyl-4-((1-(3-(3,5-dichlorophenyl)oxetan-3-yl)piperidin-4-yl)methoxy)-N-(ethylsulfonyl)-2-fluorobenzamide]",8.3
3,"CS(=O)(=O)NC(=O)c1cc(C2CC2)c(CN2CCO[C@@H](Cc3ccc(Cl)c(Cl)c3)C2)cc1F [Example 461, (S)-5-cyclopropyl-4-((2-(3,4-dichlorobenzyl)morpholino)methyl)-2-fluoro-N-(methylsulfonyl)benzamide]",42.1
4,"O=C(NS(=O)(=O)C1CC1)c1cc(C2CC2)c(OCC2CCN(C(c3ccc(F)cc3)c3ccc(F)cc3)CC2)cc1F [Example 363, 4-((1-(bis(4-fluorophenyl)methyl)piperidin-4-yl)methoxy)-5-cyclopropyl-N-(cyclopropylsulfonyl)-2-fluorobenzamide, trifluoroacetic acid salt]",5.8
5,"CCCCS(=O)(=O)NC(=O)c1cc(C2CC2)c(OCC2CN(C(c3ccccc3)c3ccccc3)C2)cc1F [Example 65, 4-((1-benzhydrylazetidin-3-yl)methoxy)-N-(butylsulfonyl)-5-cyclopropyl-2-fluorobenzamide]",34
6,"CS(=O)(=O)NC(=O)c1cc(C2CC2)c(OCC2CN(Cc3cc(F)cc(Cl)c3)C2)cc1F [Example 75, 4-((1-(3-chloro-5-fluorobenzyl)azetidin-3-yl)methoxy)-5-cyclopropyl-2-fluoro-N-(methylsulfonyl)benzamide]",74
7,"COC[C@@H](c1cccc(Cl)c1)N1CCC(COc2cc(F)c(C(=O)NS(C)(=O)=O)cc2C2CC2)CC1 [Example 262, (R)-4-((1-(1-(3-chlorophenyl)-2-methoxyethyl)piperidin-4-yl)methoxy)-5-cyclopropyl-2-fluoro-N-(methylsulfonyl)benzamide]",18
8,"O=C(NS(=O)(=O)C1CC1)c1cc(C2CC2)c(O[C@@H]2CCCN(c3ccc(C(F)(F)F)cn3)C2)cc1F [Example 491, (R)-5-cyclopropyl-N-(cyclopropylsulfonyl)-2-fluoro-4-((1-(5-(trifluoromethyl)pyridin-2-yl)piperidin-3-yl)oxy)benzamide, trifluoroacetic acid salt]",28.3
9,"O=C(NS(=O)(=O)C1CC1)c1cc(C2CC2)c(OCC2CCN(Cc3ccc(Br)cc3Cl)CC2)cc1F [Example 414, 4-((1-(4-bromo-2-chlorobenzyl)piperidin-4-yl)methoxy)-5-cyclopropyl-N-(cyclopropylsulfonyl)-2-fluorobenzamide, trifluoroacetic acid salt]",3.8
10,"COC[C@H](c1cc(Cl)cc(Cl)c1)N1CCC[C@@H](Oc2cc(F)c(C(=O)NS(C)(=O)=O)cc2C2CC2)C1 [Example 448, 5-cyclopropyl-4-(((R)-1-((S)-1-(3,5-dichlorophenyl)-2-methoxyethyl)piperidin-3-yl)oxy)-2-4-N-(methylsulfonyl)benzamide, trifluoroacetic acid salt]",10.5
11,"CCS(=O)(=O)NC(=O)c1cc(C2CC2)c(OCC2(C)CN([C@@H](C)c3cc(Cl)cc(Cl)c3)C2)cc1F (single isomer, unassigned) [Example 289]",3.5
12,"CS(=O)(=O)NC(=O)c1cc(C2CC2)c(OCC2CN(c3cc(C(F)(F)F)c(Cl)cn3)C2)cc1F [Example 542, 4-((1-(5-chloro-4-(trifluoromethyl)pyridin-2-yl)azetidin-3-yl)methoxy)-5-cyclopropyl-2-fluoro-N-(methylsulfonyl)benzamide]",27
13,"CS(=O)(=O)NC(=O)c1cc(Cl)c(OCC2CCN(Cc3cc(Cl)cc(OC(F)(F)F)c3)CC2)cc1F [Example 406, 5-chloro-4-((1-(3-chloro-5-(trifluoromethoxy)benzyl)piperidin-4-yl)methoxy)-2-fluoro-N-(methylsulfonyl)benzamide, trifluoroacetic acid salt]",17.6
14,"CS(=O)(=O)NC(=O)c1cc(C2CC2)c(OCC2CCN(S(=O)(=O)c3ccc(F)c(Cl)c3)CC2)cc1F [Example 382, 4-((1-((3-chloro-4-fluorophenyl)sulfonyl)piperidin-4-yl)methoxy)-5-cyclopropyl-2-fluoro-N-(methylsulfonyl)benzamide]",40.7
15,"CS(=O)(=O)NC(=O)c1cc(C2CC2)c(OCC2CC3CCC(C2)N3Cc2cc(Cl)cc(Cl)c2)cc1F [Example 449, 5-cyclopropyl-4-(((1R,3R,5S)-8-(3,5-dichlorobenzyl)-8-azabicyclo[3.2.1]octan-3-yl)methoxy)-2-fluoro-N-(methylsulfonyl)benzamide]",17.1
16,"C[C@H](c1cc(Cl)cc(Cl)c1)N1CCC(COc2cc(F)c(C(=O)NS(=O)(=O)N3CCC3)cc2C2CC2)CC1 (single isomer, unassigned) [Example 271]",3.7
17,"O=C(NS(=O)(=O)N1CC(F)C1)c1cc(C2CC2)c(OC2CC3(C2)CN(Cc2ccc(F)cc2Cl)C3)cc1F [Example 321, 4-((2-(2-chloro-4-fluorobenzyl)-2-azaspiro[3.3]heptan-6-yl)oxy)-5-cyclopropyl-2-fluoro-N-((3-fluoroazetidin-1-yl)sulfonyl)benzamide]",191
18,"COc1ccc(CN2CCC[C@@H](Oc3cc(F)c(C(=O)NS(=O)(=O)C4CC4)cc3C3CC3)C2)cc1F [Example 313, (R)-5-cyclopropyl-N-(cyclopropylsulfonyl)-2-fluoro-4-((1-(3-fluoro-4-methoxybenzyl)piperidin-3-yl)oxy)benzamide]",9.1
19,"CS(=O)(=O)NC(=O)c1cc(C2CC2)c(O[C@@H]2CCCN(Cc3cccc(OC(F)(F)F)c3)C2)cc1F [Example 437, (R)-5-cyclopropyl-2-fluoro-N-(methylsulfonyl)-4-((1-(3-(trifluoromethoxy)benzyl)piperidin-3-yl)oxy)benzamide, trifluoroacetic acid salt]",7.3
20,"CS(=O)(=O)NC(=O)c1cc(C2CC2)c(OCC2CCN(c3cc(C(F)(F)F)c(Cl)cn3)CC2)cc1F [Example 554, 4-((1-(5-chloro-4-(trifluoromethyl)pyridin-2-yl)piperidin-4-yl)methoxy)-5-cyclopropyl-2-fluoro-N-(methylsulfonyl)benzamide]",3.2
21,"CS(=O)(=O)NC(=O)c1cc(C2CC2)c(OCC2CCN(Cc3cc(C(F)(F)F)cc(C4CC4)n3)CC2)cc1F [Example 306, 5-cyclopropyl-4-((1-((6-cyclopropyl-4-(trifluoromethyl)pyridin-2-yl)methyl)piperidin-4-yl)methoxy)-2-fluoro-N-(methylsulfonyl)benzamide]",6
22,"CS(=O)(=O)NC(=O)c1cc(C2CC2)c(OCC2CCN(Cc3ccc(Cl)cc3)CC2)cc1F [Example 104, 4-((1-(4-Chlorobenzyl)piperidin-4-yl)methoxy)-5-cyclopropyl-2-fluoro-N-(methylsulfonyl)benzamide]",45.1
23,C[C@@H](c1ccc(F)cc1Cl)N1CCC(COc2cc(F)c(C(=O)NS(C)(=O)=O)cc2C2CC2)CC1 [Example 243],11
24,"CS(=O)(=O)NC(=O)c1cc(C2CC2)c(O[C@@H]2CCCN(Cc3ccc(-c4ccccc4)cc3)C2)cc1F [Example 426, (R)-4-((1-([1,1′-biphenyl]-4-ylmethyl)piperidin-3-yl)oxy)-5-cyclopropyl-2-fluoro-N-(methylsulfonyl)benzamide, trifluoroacetic acid salt]",3.1
25,"CCS(=O)(=O)NC(=O)c1cc(C2CC2)c(OC[C@@H]2CC[C@@H](C)N([C@H](C)c3cc(Cl)cc(Cl)c3)C2)cc1F [Example 345, 5-cyclopropyl-4-(((3R,6R)-1-((R)-1-(3,5-dichlorophenyl)ethyl)-6-methylpiperidin-3-yl)methoxy)-N-(ethylsulfonyl-2-fluorobenzamide, trifluoroacetic acid salt]",7.8
